The source made the active and inactive calls.
Key:
cells [1] = type: functional, cell-based
[2] = molecular target: T1, Trace amine-associated receptor 1 (Homo sapiens, UniProt Q96RJ0); experiment: Counterscreen for agonists of the human trace amine associated receptor 1 (hTAAR1): Fluorescence-based cell-based high throughput dose response assay to identify hTAAR1 agonist that also desensitize TAAR1 receptor response.; type: functional
T1 sequence (Q96RJ0 whole entry): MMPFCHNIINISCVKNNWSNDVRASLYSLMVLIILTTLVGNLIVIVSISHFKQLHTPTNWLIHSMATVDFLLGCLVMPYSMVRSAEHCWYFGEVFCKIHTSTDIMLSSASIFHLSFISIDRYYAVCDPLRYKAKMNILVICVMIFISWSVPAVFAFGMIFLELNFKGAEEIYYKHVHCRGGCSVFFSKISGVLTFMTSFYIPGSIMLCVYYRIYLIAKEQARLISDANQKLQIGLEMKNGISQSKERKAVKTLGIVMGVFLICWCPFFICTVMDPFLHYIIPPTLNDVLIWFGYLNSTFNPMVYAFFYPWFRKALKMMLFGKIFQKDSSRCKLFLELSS

[3] = molecular target: T1, Trace amine-associated receptor 1; experiment: Fluorescence-based cell-based high throughput dose response assay to identify agonists of the human trace amine associated receptor 1 (TAAR1).; type: functional
cells [4] = type: functional, cell-based; remark: listed apart in the source
Protein skinhead-1 = molecular target: T2, Protein skinhead-1 (Caenorhabditis elegans, UniProt P34707); type: functional
T2 sequence (P34707 whole entry): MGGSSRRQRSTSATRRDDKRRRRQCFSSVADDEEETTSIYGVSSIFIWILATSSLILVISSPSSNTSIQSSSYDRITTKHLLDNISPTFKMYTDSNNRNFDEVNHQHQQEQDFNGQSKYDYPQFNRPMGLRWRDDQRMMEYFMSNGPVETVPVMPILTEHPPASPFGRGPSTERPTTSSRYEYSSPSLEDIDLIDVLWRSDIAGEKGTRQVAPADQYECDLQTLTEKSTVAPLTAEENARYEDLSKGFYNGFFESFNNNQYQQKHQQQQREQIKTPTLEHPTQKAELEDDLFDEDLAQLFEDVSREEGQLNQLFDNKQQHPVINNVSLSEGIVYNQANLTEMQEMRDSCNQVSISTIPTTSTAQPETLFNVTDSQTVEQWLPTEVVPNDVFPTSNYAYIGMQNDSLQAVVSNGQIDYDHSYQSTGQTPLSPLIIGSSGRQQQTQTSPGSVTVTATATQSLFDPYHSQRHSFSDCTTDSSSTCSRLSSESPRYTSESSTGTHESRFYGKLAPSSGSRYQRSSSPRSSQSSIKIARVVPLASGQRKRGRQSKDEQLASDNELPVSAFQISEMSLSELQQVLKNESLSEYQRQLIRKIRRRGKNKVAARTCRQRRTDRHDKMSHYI

[5] = molecular target: T3, RNA-binding protein pos-1 (Caenorhabditis elegans, UniProt G5EF15); experiment: disruptors of C. elegans POS-1 RNA interaction – biochemical, fluorescence polarization, dose response (AID 1964);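 also: purified POS-1 fused to maltose binding protein made in E. coli; potency of compounds blocking POS-1 binding to fluorescent RNA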
T3 sequence (G5EF15 whole entry): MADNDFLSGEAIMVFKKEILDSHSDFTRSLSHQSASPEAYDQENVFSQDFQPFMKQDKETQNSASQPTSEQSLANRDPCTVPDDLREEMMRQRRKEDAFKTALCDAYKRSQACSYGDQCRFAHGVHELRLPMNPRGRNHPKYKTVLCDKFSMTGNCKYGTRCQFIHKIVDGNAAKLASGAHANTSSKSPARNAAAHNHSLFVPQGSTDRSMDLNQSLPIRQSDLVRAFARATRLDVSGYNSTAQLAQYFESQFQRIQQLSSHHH

[6] = molecular target: T4, Zinc finger protein mex-5 (Caenorhabditis elegans, UniProt Q9XUB2); experiment: potency of MEX-5 RNA-binding blockers – biochemical, C. elegans, fluorescence polarization, dose response (AID 1960)
T4 sequence (Q9XUB2 whole entry): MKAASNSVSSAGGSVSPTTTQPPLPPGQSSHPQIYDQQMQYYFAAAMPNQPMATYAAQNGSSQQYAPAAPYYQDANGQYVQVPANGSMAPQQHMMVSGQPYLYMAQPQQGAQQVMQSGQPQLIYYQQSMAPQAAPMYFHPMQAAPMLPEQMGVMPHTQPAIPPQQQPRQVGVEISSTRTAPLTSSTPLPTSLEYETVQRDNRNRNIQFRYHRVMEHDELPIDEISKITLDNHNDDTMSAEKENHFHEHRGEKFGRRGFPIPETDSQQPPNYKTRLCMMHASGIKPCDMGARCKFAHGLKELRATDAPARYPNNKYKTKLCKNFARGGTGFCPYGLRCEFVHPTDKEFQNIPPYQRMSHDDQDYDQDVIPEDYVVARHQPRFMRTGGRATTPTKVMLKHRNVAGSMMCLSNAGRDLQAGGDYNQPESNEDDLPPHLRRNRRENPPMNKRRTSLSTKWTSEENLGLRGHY

[7] = molecular target: T5, Rac GTPase-activating protein 1 (Homo sapiens, UniProt Q9H0H5); experiment: blockers of MgcRacGAP-driven Rac1 GTP hydrolysis – biochemical, ADP Hunter fluorescence, primary and confirmatory, confirmation (AID 624330); type: functional
T5 sequence (Q9H0H5 whole entry): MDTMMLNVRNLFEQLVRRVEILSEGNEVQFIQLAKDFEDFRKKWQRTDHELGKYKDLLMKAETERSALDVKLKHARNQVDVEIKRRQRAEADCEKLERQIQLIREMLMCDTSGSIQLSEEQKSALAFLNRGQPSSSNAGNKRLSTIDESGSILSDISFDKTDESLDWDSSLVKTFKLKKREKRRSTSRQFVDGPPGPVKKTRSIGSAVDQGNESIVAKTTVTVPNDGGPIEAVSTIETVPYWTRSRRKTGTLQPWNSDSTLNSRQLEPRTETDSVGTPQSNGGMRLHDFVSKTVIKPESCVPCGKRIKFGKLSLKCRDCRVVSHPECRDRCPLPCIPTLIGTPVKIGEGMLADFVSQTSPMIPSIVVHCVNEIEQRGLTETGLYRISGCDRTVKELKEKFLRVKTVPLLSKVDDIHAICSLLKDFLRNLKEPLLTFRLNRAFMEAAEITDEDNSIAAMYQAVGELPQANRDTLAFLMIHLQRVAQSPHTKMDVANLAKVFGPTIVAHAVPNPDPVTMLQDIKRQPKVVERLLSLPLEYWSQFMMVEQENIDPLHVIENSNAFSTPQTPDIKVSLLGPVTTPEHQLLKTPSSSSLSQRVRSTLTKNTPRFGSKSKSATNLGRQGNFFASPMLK

[8] = off-target signal loss in HeLa-CEM21 co-culture – HeLa F-luc CTL cells, cherry-picked, counter-screen for HIV-1 Env fusion inhibitor project, dose response (AID 652040); type: functional, cell-based;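 also: potency for signal decrease marking cytotoxic or nonspecific inhibition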
[9] = HIV-1 AD8 envelope cell-cell fusion blockers – cherry-pick, dose response (AID 652062); type: functional, cell-based;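 also: luciferase signal from cell-cell fusion driven by HIV-1 clade B AD8 Env; potency is for inhibitors of fusion seen as a drop in luminescence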
[10] = molecular target: T6, Mannose-6-phosphate isomerase (Homo sapiens, UniProt P34949); experiment: MPI inhibition at elevated mannose 6-phosphate – biochemical, fluorescence intensity, high mannose 6-phosphate, primary screen (AID 1220)
T6 sequence (P34949 whole entry): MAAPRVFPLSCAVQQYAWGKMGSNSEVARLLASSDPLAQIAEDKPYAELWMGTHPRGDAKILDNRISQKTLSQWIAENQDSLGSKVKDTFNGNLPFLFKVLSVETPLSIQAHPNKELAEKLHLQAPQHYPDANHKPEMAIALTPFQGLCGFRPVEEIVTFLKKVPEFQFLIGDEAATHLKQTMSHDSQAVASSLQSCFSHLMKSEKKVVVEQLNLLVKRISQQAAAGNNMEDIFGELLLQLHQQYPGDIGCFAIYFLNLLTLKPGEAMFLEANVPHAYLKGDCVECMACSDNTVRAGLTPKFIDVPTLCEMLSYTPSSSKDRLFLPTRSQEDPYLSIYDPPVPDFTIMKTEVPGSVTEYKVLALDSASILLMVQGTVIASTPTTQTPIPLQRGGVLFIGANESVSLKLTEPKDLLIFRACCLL

Paired box protein Pax-8 = Paired box protein Pax-8 (Homo sapiens, UniProt Q06710); experiment: PAX8 transcriptional activity inhibition in RMG-I – RMG-I cells, luciferase, cherry-pick, dose response (AID 687027); type: functional, cell-based;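 also: luciferase reporter driven by Pax8 target thyroperoxidase promoter measured by SteadyGlo luminescence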
Sequence of Paired box protein Pax-8 (Q06710 whole entry): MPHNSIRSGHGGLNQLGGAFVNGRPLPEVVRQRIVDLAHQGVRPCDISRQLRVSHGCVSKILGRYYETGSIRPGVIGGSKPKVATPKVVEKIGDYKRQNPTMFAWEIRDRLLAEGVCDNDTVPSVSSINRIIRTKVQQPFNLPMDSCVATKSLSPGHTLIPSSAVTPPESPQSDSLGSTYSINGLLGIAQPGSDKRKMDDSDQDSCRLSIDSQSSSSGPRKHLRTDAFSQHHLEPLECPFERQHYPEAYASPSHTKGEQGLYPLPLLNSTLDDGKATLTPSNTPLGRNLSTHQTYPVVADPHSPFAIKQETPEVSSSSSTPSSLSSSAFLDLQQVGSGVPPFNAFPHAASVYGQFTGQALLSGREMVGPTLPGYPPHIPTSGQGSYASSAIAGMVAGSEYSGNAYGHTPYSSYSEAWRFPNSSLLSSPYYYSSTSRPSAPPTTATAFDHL

Row | Structure (SMILES) | EC50 (cells [1]) | IC50 [2] | EC50 [3] | IC50 (cells [4]) | also measured
1 | Cc1cccc(NC2=NCC(=O)N2CCc2ccccc2)c1 | > 29.9 µM (inactive) | 7.06 µM (active) | 0.866 µM (active) | > 29.9 µM (inactive) | 
2 | Cc1nc(NCCc2ccccc2)c2nnn(Cc3ccccc3Cl)c2n1 | > 29.9 µM (inactive) | 3.51 µM (active) | 0.59 µM (active) | > 29.9 µM (inactive) | 
3 | c1ccc(-c2csc(-c3cccnc3)n2)cc1 |  |  |  |  | IC50 (Protein skinhead-1): 40.4 µM (active)
4 | CCCn1c(O)c(C#N)c(C)c(CN2CCCC(C)C2)c1=O (configuration not stated) | > 29.9 µM (inactive) | 13 µM (inactive) | 3.04 µM (active) | > 29.9 µM (inactive) | EC50 [5]: > 300 µM (inconclusive); EC50 [6]: 6.59 µM (active)
5 | C=CCSc1nnc2c(n1)-c1cccc3cccc-2c13 |  |  |  |  | IC50 (Protein skinhead-1): 18.2 µM (active)
6 | C=CCc1cc(C)ccc1OCCCn1ccnc1 |  |  |  |  | IC50 [7]: 127 µM (active)
7 | COc1cc(/C=N/NC(=O)CNC(=O)c2ccc3c(c2)OCCO3)ccc1O |  |  |  |  | IC50 [7]: 54.9 µM (active)
8 | Cn1c(=O)oc2cc(S(=O)(=O)NCc3ccncc3)ccc21 |  |  |  |  | AC50 [8]: 58.5 µM (active); AC50 [9]: 17.4 µM (active)
9 | O=C(NCCc1ccccc1)c1ccc(CS(=O)(=O)Cc2ccccc2F)o1 | > 29.9 µM (inactive) | 5.69 µM (active) | 2.78 µM (active) | 17.7 µM (inactive) | 
10 | COC(=O)C1=C(C(=O)OC)SC(=C2C(=S)C(C)(C)N(C(=O)C(C)C)c3ccccc32)S1 |  |  |  |  | IC50 [10]: 7.38 µM (active)
11 | CC(C)(C)N(Cc1ccc2c(c1)OCO2)C(=O)/C=C\[S+]([O-])c1ccccc1 (configuration not stated) |  |  |  |  | AC50 (Paired box protein Pax-8): 6.14 µM (active); IC50 [7]: 125 µM (active)
